Converted amounts (≈) assume the structure as drawn.

A short description of data set [1]: Animal toxicity in neutropenic mouse disseminated candidiasis model (Example 8). Particulars: 80 mg/kg intraperitoneal, neutropenic mice. Format: in vivo. The procedure: (§1) Selvamicin was tested in the neutropenic mouse disseminated candidiasis model. Briefly, mice were infected with an inoculum of 5.70 log 10 cfu/ml of Candida albicans K1. Two hours after infection, the mice were administered either saline or selvamicin at 80 mg/kg via the intraperitoneal route. Eight hours after therapy, the burden of Candida albicans in mouse kidneys was measured by viable plate counts of organ homogenates.

In another data set the test system is B. subtilis. Kind of data set: Liquid broth activity testing against bacteria. Format: cell-based. The settings on record: LB media, OD at 22 h. As to the method: (§2) Determination of minimum inhibitory concentration: Fresh DMSO solutions of selvarmicin and nystatin were prepared as serial dilutions and dispensed into clear flat-bottom 96-well plates in four replicates. A starting inoculum of the appropriate test strain in media was added to each well to yield a final concentration of 1% DMSO by volume. The plates were incubated at 30° C. with shaking at 200 rpm. Growth was assayed by OD600 readings taken on a M5 plate reader (Molecular Devices). For E. coli, B. subtilis, and M. luteus, the starting inoculum consisted of an overnight culture in LB diluted into LB media at 10 μL/mL and final OD readings were taken at 22 h. For C. albicans and S. cerevisiae, the starting inoculum consisted of an overnight culture in YPD media diluted to an OD600 of 0.05 in YPD media and final OD readings were taken at 14 h. For T. harzianum and A. fumigatus, the starting inoculum consisted of a stock of concentrated conidia diluted into potato dextrose broth at 2 uL/mL and final OD readings were taken at 22 h. Using Prism (GraphPad), the OD data were normalized and fit to a Gompertz function, from which MIC values were extracted.
(§3) Selvamicin's improved solubility, despite its lack of charged carboxylate and ammonium groups, is probably contributed by its second sugar moiety.

For another data set, the system named is M. luteus. Briefly: Liquid broth activity testing against bacteria. Particulars: LB media, OD at 22 h. Format: cell-based. As to the method: as §2, §3
In another data set the test system is E. coli. Briefly: Liquid broth activity testing against bacteria. Format: cell-based. The settings on record: LB media, OD at 22 h. The procedure: as §2, §3
The subject of a further data set is Candida albicans. Briefly: Liquid broth minimum inhibitory concentration. Format: cell-based. Particulars: YPD media, 30° C., OD600 at 14 h, 1% DMSO, read-out: MIC against Candida albicans. As to the method:
as §2, §3

The nature of a further data set: Solubility determination. Format: physicochemical. The settings on record: HEPES buffer, aqueous buffer, thermodynamic from solid; 5 mM HEPES pH 7.4, 22° C., UV-vis absorbance. As to the method: Solubility determination: Solubility for selvamicin and nystatin was measured with minor modifications from a previously reported protocol. 1 Briefly, in microcentrifuge tubes, 20 μL […] HEPES (pH=7.4) was added to 2.5 mg of selvamicin and of nystatin and the resulting suspensions were vortexed vigorously for 30 min at 22° C. The tubes were centrifuged, the resulting supernatants were diluted in HEPES buffer, and concentrations were determined by UV-vis absorbance (306 nm for nystatin and 335 nm for selvamicin).

The subject of another data set is Candida albicans K1. Briefly: Neutropenic mouse disseminated candidiasis model (Example 8). The settings on record: 80 mg/kg single intraperitoneal dose 2 h after infection, read 8 h after therapy. Format: in vivo. As to the method:
as §1

Data set [2] is described as follows: Isothermal calorimetry sterol binding assay. Particulars: 150 μM polyene, POPC LUVs with 11 mol % ergosterol, 25° C.
Experimental: Isothermal Calorimetry Sterol Binding Assay:
Large unilamellar vesicle (LUV) preparation: In a glass vial, a 25 mg/mL solution of palmitoyl oleoyl phosphatidylcholine (POPC) in chloroform (0.96 mL, Avanti Polar Lipids) was mixed with a freshly prepared 4 mg/mL solution of the appropriate sterol (ergosterol or cholesterol. Aldrich) in chloroform (0.35 mL). The sterol solution was omitted for preparation of sterol-free POPC LUVs. The resulting solution was evaporated to dryness in vacuo to yield a lipid film, which was placed under high vacuum for at least 5 h. To this film was added 1 mL 5 mM HEPES (pH adjusted to 7.4 with KOH) and the resulting suspension was vortexed for 3 min. This lipid suspension was loaded into a syringe and passed through a 0.1 μM filter (Whatman) 21 times using an Avanti Polar Lipids Mini-Extruder to yield an LUN suspension (32 mM POPC, 11 mol % sterol; assumed no loss during extrusion).
Isothermal calorimetry (ITC) experiments: Solutions of polyene (150 μM selvamicin or nystatin) in 1% DMSO/5 mM HEPES (pH=7.4) were prepared by dilution from a 1.5 mM solution in DMSO. 8 mM POPC LUV suspensions in 1% DMSO/5 mM HEPES (pH=7.4) were prepared by dilution of the above LUV suspensions with HEPES buffer and DMSO. […]
A further data set has as its system C. albicans. Briefly: Neutropenic mouse disseminated candidiasis model (Example 9). Format: in vivo. The settings on record: 20 mg/kg or 80 mg/kg intraperitoneal. The procedure:
(§4) Selvamicin was tested in the neutropenic mouse disseminated candidiasis model. Mice were infected with an inoculum of C. albicans, C. glabrata, and C. auris. After infection, the mice were administered either saline or selvaimicin at 20 mg/kg or 80 mg/kg via an intraperitoneal route. After therapy, the burden of Candida albicans in mouse kidneys was measured by viable plate counts of organ homogenates.

The subject of another data set is C. auris. The data set is described as above. Format: in vivo. Particulars: 20 mg/kg or 80 mg/kg intraperitoneal. The procedure:
as §4

Another data set deals with C. glabrata. Described as above. Particulars: 20 mg/kg or 80 mg/kg intraperitoneal. Format: in vivo. The procedure: as §4

In the case of `CCC1OC(=O)CC[C@@H](O)[C@H](O)C[C@H](O)C[C@]2(O)C[C@H](O)[C@](C)(O)C(CC(O[C@@H]3O[C@H](C)[C@@H](O)[C@H](O)[C@@H]3O)/C=C/C=C/C=C/C=C/C=C/C(C)C(O[C@H]3C[C@@H](O)[C@@H](OC)[C@H](C)O3)C1C)O2` (stereo partly shown) [Selvamicin], in data set [1], the Animal toxicity entry is given as “No animal toxicity was apparent”. For the same molecule, the “Activity against Gram-positive bacteria (B. subtilis)” value with B. subtilis is reported as “No activity was detected”. In addition, the “Activity against Gram-positive bacteria (M. luteus)” value in the data set with M. luteus is on record as “No activity was detected”. Moreover, the “Activity against Gram-negative bacteria (E. coli)” value in the data set on E. coli is reported as “No activity was detected”. Moreover, in the data set with Candida albicans, the MIC is 23 µM (≈ 21.4 µg/mL). In the data set “Solubility determination”, this molecule displayed a solubility at 30 min of 2300 µM (≈ 2140 µg/mL). The “Efficacy: burden of Candida albicans in mouse kidneys” value in the data set with Candida albicans K1 was “demonstrated efficacy in preventing Candida albicans growth”. In addition, the “Binding to ergosterol-containing vesicles (ITC, heats evolved)” value in data set [2] is “no evidence for binding”. Further, the “Efficacy in preventing C. albicans growth (kidney burden)” value in the data set with C. albicans is given as “demonstrated efficacy”. Further, the “Efficacy in preventing C. auris growth (kidney burden)” value in the data set on C. auris is reported as “demonstrated efficacy”. In addition, in the data set on C. glabrata, the “Efficacy in preventing C. glabrata growth (kidney burden)” value is on record as “demonstrated efficacy”.

As to `C[C@@H]1[C@H](O)[C@@H](C)/C=C/C=C/CC/C=C/C=C/C=C/C=C/[C@H](O[C@H]2O[C@H](C)[C@@H](O)[C@H](N)[C@@H]2O)C[C@@H]2O[C@](O)(C[C@@H](O)[C@H](O)CC[C@@H](O)C[C@@H](O)C[C@@H](O)CC(=O)O[C@H]1C)C[C@H](O)[C@H]2C(=O)O` [nystatin A1, reference compound], the MIC in the data set on Candida albicans amounted to 1 µM (≈ 0.926 µg/mL). Further, the solubility at 30 min in “Solubility determination” worked out at 300 µM (≈ 278 µg/mL).

(Values after US10793590B2, “Antifungal compounds” (President and Fellow of Harvard College, priority 2016, dated 2020).)
